Like-named read-outs stand apart in the source and are kept apart here.
What was measured:
[1] = biological target: T1, LmxCLK1 (Leishmania mexicana, UniProt E9AMP2); experiment: biochemical; assay type: binding
T1 sequence (E9AMP2 1-422): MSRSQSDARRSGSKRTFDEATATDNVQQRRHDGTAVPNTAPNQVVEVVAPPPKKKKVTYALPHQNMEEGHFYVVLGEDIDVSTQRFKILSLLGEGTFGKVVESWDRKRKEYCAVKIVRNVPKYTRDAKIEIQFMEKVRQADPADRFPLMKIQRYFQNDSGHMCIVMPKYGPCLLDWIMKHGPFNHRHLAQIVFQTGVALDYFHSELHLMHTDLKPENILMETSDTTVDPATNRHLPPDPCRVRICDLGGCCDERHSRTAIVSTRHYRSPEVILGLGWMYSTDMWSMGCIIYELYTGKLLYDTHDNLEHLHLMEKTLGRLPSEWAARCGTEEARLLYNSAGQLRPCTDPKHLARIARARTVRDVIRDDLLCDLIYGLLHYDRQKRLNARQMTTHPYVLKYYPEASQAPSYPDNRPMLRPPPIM

[2] = biological target: NLuc::LmxCLK1 (Leishmania mexicana, UniProt E9AMP2); experiment: cell-based; assay type: cell-based; conditions: for Target occupancy Run 1 / Target occupancy Run 2 / Target occupancy Average: 10 µM compound, tracer SV366, promastigotes; for Target occupancy Average: mean of two experiments
Method: All compounds were tested at a fixed concentration of 10 µM to enable direct comparison of their target occupancy in live cells.
Serially diluted probes (5 µL) were added to 85 µL of cells in culture media or 85 µL of purified protein. Final well volumes were adjusted to 100 µL with sterile Opti-MEM™ I Reduced Serum Medium (Thermo-Scientific) – for wells containing cells; or Kinase Buffer - for wells containing purified protein. For tracer displacement assays, samples were prepared as above, but final volume was brought to 100 µL by addition of vehicle or serially-diluted test compounds. Final DMSO concentration in these assays was 1%. […] Light emissions at 460+10 nm (BRET donor) and at 610+20 nm (BRET acceptor) were sequentially recorded (integration time = 0.5 s, gain = 3600) using a luminometer (BMG LABTECH Clariostar or Biotek Synergy HT). BRET values are reported in milli-BRET (mBRET) units (mBU), obtained by dividing the acceptor luminescence by the donor luminescence and multiplying the result by a factor of 1,000. BRET values were converted to blank-corrected probe occupancies (%) according to equation [1]: (1) Probeoccupancy(%)=X−Z/Y−Z×100 where X = mBRET value in the presence of the test compound and the probe, Y = mBRET value in the presence of probe only, and Z = mBRET value in the absence of probe and test compound. […]

[3] = DSF, 10 µM compound, 2 µM LmxCLK1, Run 1
[4] = DSF, 10 µM compound, 2 µM LmxCLK1, Run 2
[5] = DSF, 10 µM compound, 2 µM LmxCLK1, mean of two runs
[6] = DSF, 10 µM compound, 2 µM LmxCLK1, Run 1, read-out: ΔTm Run 1
[7] = DSF, 10 µM compound, 2 µM LmxCLK1, Run 2, read-out: ΔTm Run 2
[8] = DSF, 10 µM compound, 2 µM LmxCLK1, mean of two runs, read-out: ΔTm Average
[9] = read-out: Target occupancy Average
[10] = read-out: Target occupancy Run 1
[11] = read-out: Target occupancy Run 2

COc1ccc2c(c1)c(C1=C(c3c[nH]c4ccccc34)C(=O)NC1=O)cn2CCCN(C)C [Go 6983]
ΔTm Run 1 [1, 3]: 0.6 °C
ΔTm Run 2 [1, 4]: 0.0 °C
ΔTm Average [1, 5]: 0.3 °C
Target occupancy Run 1 [2]: -11.0%
Target occupancy Run 2 [2]: -14.1%
Target occupancy Average [2]: -12.6%

O=C(c1ccc(Nc2nccc(-c3cc4ccccc4s3)n2)cc1)N1CCC(N2CCCC2)CC1 [IKK-16 (IKK Inhibitor VII)]
ΔTm Run 1 [1, 3]: 1.9 °C
ΔTm Run 2 [1, 4]: 1.6 °C
ΔTm Average [1, 5]: 1.8 °C
Target occupancy Run 1 [2]: 10.2%
Target occupancy Run 2 [2]: -10.2%
Target occupancy Average [2]: 0.0%

Cc1[nH]c2ccccc2c1C1=C(NCCc2ccc(F)cc2)C(=O)N(C)C1=O [IM-12]
ΔTm Average [1]: -0.2
ΔTm Run 1 [1]: -0.2
ΔTm Run 2 [1]: -0.3
Target occupancy Run 1 [2]: -0.3%
Target occupancy Run 2 [2]: -14.5%
Target occupancy Average [2]: -7.4%

CC(C)n1nc(-c2ccc3oc(N)nc3c2)c2c(N)ncnc21 [INK 128 (MLN0128)]
ΔTm Run 1 [1, 3]: 0.6 °C
ΔTm Run 2 [1, 4]: 0.5 °C
ΔTm Average [1, 5]: 0.5 °C
Target occupancy Run 1 [2]: -0.8%
Target occupancy Run 2 [2]: 0.1%
Target occupancy Average [2]: -0.3%

C=CS(=O)(=O)NC1CCN(C(=O)CNc2cc(I)c(Cl)cc2OC)CC1 [K-Ras(G12C) inhibitor 9]
ΔTm Run 1 [1, 3]: 0.3 °C
ΔTm Run 2 [1, 4]: -0.6 °C
ΔTm Average [1, 5]: -0.1 °C
Target occupancy Run 1 [2]: -21.1%
Target occupancy Run 2 [2]: -10.0%
Target occupancy Average [2]: -15.5%

O=c1cc(-c2cccc3c2Sc2ccccc2S3)oc(N2CCOCC2)c1 [KU-55933 (ATM Kinase Inhibitor)]
ΔTm Run 1 [1, 3]: 0.6 °C
ΔTm Run 2 [1, 4]: 0.2 °C
ΔTm Average [1, 5]: 0.4 °C
Target occupancy Run 1 [2]: 4.0%
Target occupancy Run 2 [2]: -21.9%
Target occupancy Average [2]: -9.0%

Cc1cnc(NC(=O)Nc2cc(Br)c(C)cc2OC[C@@H]2CNCCO2)cn1 [LY2603618]
ΔTm at 10 µM [1, 6]: 0 °C
ΔTm at 10 µM [1, 7]: -0.4 °C
ΔTm at 10 µM [1, 8]: -0.2 °C
receptor occupancy at 10 µM [2, 9]: -11.8%
receptor occupancy at 10 µM [2, 10]: 7%
receptor occupancy at 10 µM [2, 11]: -30.5%

CN(C[C@@H]1COCCO1)S(=O)(=O)Nc1ccc2ccc3ncc(-c4cnn(C)c4)cc3c(=O)c2c1 [MK-2461]
ΔTm at 10 µM [1, 6]: 0 °C
ΔTm at 10 µM [1, 7]: 0.2 °C
ΔTm at 10 µM [1, 8]: 0.1 °C
receptor occupancy at 10 µM [2, 9]: -2.7%
receptor occupancy at 10 µM [2, 10]: -9.3%
receptor occupancy at 10 µM [2, 11]: 3.8%

O=C(O)[C@]1(Cc2cccc(Nc3nccs3)n2)CC[C@@H](Oc2cccc(Cl)c2F)CC1 [MK-5108 (VX-689)]
ΔTm Run 1 [1, 3]: -0.1 °C
ΔTm Run 2 [1, 4]: -0.2 °C
ΔTm Average [1, 5]: -0.1 °C
Target occupancy Run 1 [2]: -2.8%
Target occupancy Run 2 [2]: 1.0%
Target occupancy Average [2]: -0.9%
